Our source for the Ki and IC50 values is ChEMBL document CHEMBL1129981 (J Med Chem, 1997).

In assay [1] the target is T1, Adrenergic receptor alpha-2 (Rattus norvegicus, UniProt P22086+P19328+P22909).
T1 sequence (P22086 whole entry): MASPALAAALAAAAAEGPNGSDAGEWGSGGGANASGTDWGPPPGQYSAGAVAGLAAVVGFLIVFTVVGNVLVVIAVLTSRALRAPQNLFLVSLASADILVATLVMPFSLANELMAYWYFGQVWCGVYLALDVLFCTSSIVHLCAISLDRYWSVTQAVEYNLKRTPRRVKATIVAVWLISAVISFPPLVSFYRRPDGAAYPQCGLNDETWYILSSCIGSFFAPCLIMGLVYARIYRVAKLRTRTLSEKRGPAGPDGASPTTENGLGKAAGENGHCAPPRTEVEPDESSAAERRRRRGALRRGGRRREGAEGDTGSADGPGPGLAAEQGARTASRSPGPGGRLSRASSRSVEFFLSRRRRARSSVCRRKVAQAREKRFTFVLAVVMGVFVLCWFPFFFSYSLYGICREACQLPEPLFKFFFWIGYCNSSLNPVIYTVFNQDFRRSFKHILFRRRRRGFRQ
T1 sequence (P19328 whole entry): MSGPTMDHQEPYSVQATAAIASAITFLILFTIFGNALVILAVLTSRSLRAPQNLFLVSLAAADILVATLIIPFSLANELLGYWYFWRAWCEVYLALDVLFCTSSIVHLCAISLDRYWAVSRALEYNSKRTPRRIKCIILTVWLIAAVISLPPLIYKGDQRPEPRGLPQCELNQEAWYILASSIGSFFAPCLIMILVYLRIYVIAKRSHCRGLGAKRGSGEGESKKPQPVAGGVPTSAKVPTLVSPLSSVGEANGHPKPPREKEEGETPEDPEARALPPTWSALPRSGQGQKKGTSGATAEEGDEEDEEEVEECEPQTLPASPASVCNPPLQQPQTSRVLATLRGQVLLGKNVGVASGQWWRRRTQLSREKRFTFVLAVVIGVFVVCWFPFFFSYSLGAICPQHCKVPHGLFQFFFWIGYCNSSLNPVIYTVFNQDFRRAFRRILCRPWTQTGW
T1 sequence (P22909 whole entry): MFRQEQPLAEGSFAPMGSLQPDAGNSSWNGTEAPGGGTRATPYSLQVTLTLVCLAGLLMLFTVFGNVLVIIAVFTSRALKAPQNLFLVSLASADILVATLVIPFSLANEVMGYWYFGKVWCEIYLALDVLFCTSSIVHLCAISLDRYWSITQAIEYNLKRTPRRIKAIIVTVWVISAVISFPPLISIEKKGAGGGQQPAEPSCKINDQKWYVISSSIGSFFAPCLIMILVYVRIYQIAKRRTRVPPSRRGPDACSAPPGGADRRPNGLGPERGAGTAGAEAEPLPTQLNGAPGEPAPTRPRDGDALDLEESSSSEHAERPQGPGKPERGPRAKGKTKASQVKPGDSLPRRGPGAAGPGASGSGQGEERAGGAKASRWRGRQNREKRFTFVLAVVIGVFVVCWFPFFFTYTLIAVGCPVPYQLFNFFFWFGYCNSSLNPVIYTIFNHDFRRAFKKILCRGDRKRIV
The assay can be described thus: Ability to displace [3H]rauwolscine from Alpha-2 adrenergic receptor in rat cortical membranes. The format is cell membranes.

The target of assay [2] is Sodium-dependent serotonin transporter (Rattus norvegicus, UniProt P31652). In words: Inhibition of uptake of [3H]5-HT in synaptosomes from rat cortex. In kind it is functional, subcellular, Brain.
Sequence of Sodium-dependent serotonin transporter (P31652 whole entry): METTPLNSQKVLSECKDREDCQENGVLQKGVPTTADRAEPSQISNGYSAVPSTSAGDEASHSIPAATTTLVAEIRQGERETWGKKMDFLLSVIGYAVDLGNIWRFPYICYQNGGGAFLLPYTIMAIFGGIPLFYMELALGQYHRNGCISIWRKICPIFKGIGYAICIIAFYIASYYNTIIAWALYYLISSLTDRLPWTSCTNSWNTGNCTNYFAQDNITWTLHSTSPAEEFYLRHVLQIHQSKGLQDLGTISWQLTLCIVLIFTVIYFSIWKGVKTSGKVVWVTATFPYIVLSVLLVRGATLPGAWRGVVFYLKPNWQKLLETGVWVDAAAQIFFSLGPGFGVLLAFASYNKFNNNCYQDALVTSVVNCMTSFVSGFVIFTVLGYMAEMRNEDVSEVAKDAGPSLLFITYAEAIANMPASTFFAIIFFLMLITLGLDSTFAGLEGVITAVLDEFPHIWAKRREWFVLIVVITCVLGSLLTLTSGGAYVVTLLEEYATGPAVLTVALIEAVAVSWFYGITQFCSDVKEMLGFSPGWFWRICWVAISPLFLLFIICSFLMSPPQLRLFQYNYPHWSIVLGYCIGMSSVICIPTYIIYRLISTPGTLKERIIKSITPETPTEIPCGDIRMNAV

In assay [1], `CN(CCc1ccc2c(c1)OCO2)C[C@@H]1CCCc2c1ccc1ccoc21` returned a Ki of 0.00488 µM. The same molecule came in with an IC50 in assay [2] of 0.101 µM.

On to `CN(CCc1ccc2c(c1)OCO2)CC1CCCc2c(NS(C)(=O)=O)cccc21` (centres undefined), for which the Ki in assay [1] is 0.019 µM. In assay [2], this molecule returned an IC50 of 0.658 µM.

On to `CN(CCc1ccc2c(c1)OCO2)C[C@@H]1CC[C@H]2CCOc3cccc1c32`, for which, in assay [1], the Ki worked out at 0.0941 µM. The molecule also showed an IC50 in assay [2] of 0.436 µM.

For the molecule `COc1cccc2c1CCC[C@H]2CN(C)CCc1ccc2nc(N)sc2c1`, the Ki in assay [1] amounted to 0.00567 µM. In addition, 0.00947 µM corresponded to half-maximal inhibition in assay [2] (IC50).

In turn, `COc1cccc2c1CCC[C@H]2CN(C)CCc1ccc2c(c1)CS(=O)(=O)C2` showed a Ki in assay [1] of 0.00178 µM. This molecule gave an IC50 in assay [2] of 0.00667 µM.

With `COc1cccc2c1CCC[C@H]2CN(C)CCc1ccc2c(c1)N(S(=O)(=O)C(F)(F)F)CC2`, in assay [1], the Ki was 0.125 µM. The molecule also showed an IC50 in assay [2] of 0.183 µM.

For `C1=C(CC2=NCCN2)CCc2ccccc21` [NAPAMEZOLE], the Ki in assay [1] worked out at 0.00417 µM. The same molecule came in with an IC50 in assay [2] of 0.887 µM.
